# Experimental data reported in ChEMBL document CHEMBL5678818, “Discovery of potent SOS1 inhibitors that block RAS activation via disruption of the RAS-SOS1 interaction” (Proc Natl Acad Sci U S A, 2019).
# Columns and labels:
# [1] = tested on: Tyrosine-protein kinase ABL1 (Homo sapiens), P00519 [E255K]; test: Inhibition of phosphorylated ABL1 E255K mutant (unknown origin) assessed as residual activity at 100 nM by KINOMEscan analysis relative to control
# [2] = target: 5'-AMP-activated protein kinase catalytic subunit alpha-2 (Homo sapiens) (UniProt P54646); test: Inhibition of AMPK-alpha2 (unknown origin) assessed as residual activity at 100 nM by KINOMEscan analysis relative to control
# Sequence of 5'-AMP-activated protein kinase catalytic subunit alpha-2 (Homo sapiens) (P54646 whole entry, looked up): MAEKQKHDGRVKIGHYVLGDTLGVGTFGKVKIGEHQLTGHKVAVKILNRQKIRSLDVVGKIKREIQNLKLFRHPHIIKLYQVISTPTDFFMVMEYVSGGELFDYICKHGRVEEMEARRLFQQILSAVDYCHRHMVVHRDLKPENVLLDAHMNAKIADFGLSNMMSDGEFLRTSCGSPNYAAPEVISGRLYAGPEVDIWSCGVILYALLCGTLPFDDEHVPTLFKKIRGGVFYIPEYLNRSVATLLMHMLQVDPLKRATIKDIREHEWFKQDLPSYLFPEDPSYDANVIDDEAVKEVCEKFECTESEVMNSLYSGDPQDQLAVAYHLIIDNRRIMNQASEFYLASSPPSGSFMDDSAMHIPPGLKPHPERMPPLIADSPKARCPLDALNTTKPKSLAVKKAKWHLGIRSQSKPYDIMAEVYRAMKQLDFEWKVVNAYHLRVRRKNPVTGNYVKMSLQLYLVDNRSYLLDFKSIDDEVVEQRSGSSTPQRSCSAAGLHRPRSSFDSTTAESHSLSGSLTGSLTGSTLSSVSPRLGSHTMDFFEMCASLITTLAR
# [3] = target: Tyrosine-protein kinase Fgr (Homo sapiens) (UniProt P09769); test: Inhibition of FGR (unknown origin) assessed as residual activity at 100 nM by KINOMEscan analysis relative to control
# Sequence of Tyrosine-protein kinase Fgr (Homo sapiens) (P09769 2-529 limits assumed): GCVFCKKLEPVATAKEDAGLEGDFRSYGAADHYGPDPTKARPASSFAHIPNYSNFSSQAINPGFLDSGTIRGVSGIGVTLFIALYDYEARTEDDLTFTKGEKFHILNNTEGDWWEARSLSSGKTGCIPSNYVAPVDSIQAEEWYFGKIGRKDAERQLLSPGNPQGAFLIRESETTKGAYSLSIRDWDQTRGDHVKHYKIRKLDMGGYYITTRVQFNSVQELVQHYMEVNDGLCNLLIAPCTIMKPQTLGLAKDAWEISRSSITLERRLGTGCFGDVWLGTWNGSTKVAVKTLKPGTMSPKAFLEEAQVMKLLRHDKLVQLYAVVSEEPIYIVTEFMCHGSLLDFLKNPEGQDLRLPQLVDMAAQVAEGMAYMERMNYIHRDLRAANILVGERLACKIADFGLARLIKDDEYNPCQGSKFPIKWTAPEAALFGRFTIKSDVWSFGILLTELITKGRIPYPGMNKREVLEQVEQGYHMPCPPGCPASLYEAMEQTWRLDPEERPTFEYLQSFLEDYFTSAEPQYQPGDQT
# [4] = target: Vascular endothelial growth factor receptor 3 (Homo sapiens) (UniProt P35916); test: Inhibition of FLT4 (unknown origin) assessed as residual activity at 100 nM by KINOMEscan analysis relative to control
# [5] = target: Tyrosine-protein kinase Lyn (Homo sapiens) (UniProt P07948); test: Inhibition of LYN (unknown origin) assessed as residual activity at 100 nM by KINOMEscan analysis relative to control
# Sequence of Tyrosine-protein kinase Lyn (Homo sapiens) (P07948 2-512 limits assumed): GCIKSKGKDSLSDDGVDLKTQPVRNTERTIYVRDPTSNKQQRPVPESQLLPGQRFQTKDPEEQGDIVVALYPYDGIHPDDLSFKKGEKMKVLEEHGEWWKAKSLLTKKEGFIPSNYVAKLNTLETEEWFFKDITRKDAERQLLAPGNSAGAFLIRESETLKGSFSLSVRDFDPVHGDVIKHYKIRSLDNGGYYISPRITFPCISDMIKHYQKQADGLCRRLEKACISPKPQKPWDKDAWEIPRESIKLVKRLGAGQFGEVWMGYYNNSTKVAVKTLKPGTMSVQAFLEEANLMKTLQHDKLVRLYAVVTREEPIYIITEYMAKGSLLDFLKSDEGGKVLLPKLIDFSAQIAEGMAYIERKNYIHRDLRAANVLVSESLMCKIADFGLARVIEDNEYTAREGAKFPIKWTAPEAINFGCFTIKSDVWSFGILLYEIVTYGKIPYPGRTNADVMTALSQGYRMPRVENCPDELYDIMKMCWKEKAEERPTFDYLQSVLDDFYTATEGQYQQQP
# [6] = target: T1, Dual specificity mitogen-activated protein kinase kinase 6 (Homo sapiens) (UniProt P52564); test: Inhibition of MEK6 (unknown origin) assessed as residual activity at 100 nM by KINOMEscan analysis relative to control
# T1 sequence (whole entry): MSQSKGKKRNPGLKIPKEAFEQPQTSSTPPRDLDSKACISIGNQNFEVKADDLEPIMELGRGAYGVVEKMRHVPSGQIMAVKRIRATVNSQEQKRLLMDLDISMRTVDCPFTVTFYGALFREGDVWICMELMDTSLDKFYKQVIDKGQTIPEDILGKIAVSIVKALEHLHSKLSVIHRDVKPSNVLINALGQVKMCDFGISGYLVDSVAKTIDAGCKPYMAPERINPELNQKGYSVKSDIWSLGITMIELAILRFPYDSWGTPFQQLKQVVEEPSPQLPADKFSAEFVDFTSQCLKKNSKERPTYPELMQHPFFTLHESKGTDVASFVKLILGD
# [7] = target: Serine/threonine-protein kinase 38-like (Homo sapiens) (UniProt Q9Y2H1); test: Inhibition of NDR2 (unknown origin) assessed as residual activity at 100 nM by KINOMEscan analysis relative to control
# Sequence of Serine/threonine-protein kinase 38-like (Homo sapiens) (Q9Y2H1 2-464 limits assumed): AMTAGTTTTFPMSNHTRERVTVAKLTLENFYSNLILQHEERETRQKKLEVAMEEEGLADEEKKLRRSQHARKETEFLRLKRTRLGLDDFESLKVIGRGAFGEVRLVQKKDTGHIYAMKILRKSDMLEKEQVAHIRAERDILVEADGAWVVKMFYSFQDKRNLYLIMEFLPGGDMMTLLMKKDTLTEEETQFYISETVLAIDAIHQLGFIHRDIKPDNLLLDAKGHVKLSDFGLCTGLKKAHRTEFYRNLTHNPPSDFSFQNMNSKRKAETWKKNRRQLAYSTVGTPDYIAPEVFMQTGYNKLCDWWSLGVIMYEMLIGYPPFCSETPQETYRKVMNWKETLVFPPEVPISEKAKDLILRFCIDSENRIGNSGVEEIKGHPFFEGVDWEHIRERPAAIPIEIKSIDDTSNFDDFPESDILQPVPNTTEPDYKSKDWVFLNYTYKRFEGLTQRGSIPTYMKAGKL
# [8] = target: Serine/threonine-protein kinase PAK 4 (Homo sapiens) (UniProt O96013); test: Inhibition of PAK4 (unknown origin) assessed as residual activity at 100 nM by KINOMEscan analysis relative to control
# Sequence of Serine/threonine-protein kinase PAK 4 (Homo sapiens) (O96013 whole entry, looked up): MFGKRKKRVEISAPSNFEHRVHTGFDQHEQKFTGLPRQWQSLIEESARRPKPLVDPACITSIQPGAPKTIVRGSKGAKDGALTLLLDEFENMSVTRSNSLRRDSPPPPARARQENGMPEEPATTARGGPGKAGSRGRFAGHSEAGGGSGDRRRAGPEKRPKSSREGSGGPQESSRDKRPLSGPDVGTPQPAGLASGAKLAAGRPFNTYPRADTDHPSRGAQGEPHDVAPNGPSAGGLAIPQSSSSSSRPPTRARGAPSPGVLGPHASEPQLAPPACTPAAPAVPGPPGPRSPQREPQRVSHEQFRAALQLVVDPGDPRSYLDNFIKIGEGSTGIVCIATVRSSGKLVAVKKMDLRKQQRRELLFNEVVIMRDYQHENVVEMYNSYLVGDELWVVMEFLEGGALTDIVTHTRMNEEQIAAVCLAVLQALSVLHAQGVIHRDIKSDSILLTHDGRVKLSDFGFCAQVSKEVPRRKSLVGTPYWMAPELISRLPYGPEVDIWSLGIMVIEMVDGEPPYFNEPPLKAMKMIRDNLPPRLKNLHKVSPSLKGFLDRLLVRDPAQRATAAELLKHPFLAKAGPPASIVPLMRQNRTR
# [9] = target: cAMP-dependent protein kinase catalytic subunit alpha (Homo sapiens) (UniProt P17612); test: Inhibition of PKAC-alpha (unknown origin) assessed as residual activity at 100 nM by KINOMEscan analysis relative to control
# [10] = target: T2, Protein kinase C epsilon type (Homo sapiens) (UniProt Q02156); test: Inhibition of PRKCE (unknown origin) assessed as residual activity at 100 nM by KINOMEscan analysis relative to control
# T2 sequence (whole entry): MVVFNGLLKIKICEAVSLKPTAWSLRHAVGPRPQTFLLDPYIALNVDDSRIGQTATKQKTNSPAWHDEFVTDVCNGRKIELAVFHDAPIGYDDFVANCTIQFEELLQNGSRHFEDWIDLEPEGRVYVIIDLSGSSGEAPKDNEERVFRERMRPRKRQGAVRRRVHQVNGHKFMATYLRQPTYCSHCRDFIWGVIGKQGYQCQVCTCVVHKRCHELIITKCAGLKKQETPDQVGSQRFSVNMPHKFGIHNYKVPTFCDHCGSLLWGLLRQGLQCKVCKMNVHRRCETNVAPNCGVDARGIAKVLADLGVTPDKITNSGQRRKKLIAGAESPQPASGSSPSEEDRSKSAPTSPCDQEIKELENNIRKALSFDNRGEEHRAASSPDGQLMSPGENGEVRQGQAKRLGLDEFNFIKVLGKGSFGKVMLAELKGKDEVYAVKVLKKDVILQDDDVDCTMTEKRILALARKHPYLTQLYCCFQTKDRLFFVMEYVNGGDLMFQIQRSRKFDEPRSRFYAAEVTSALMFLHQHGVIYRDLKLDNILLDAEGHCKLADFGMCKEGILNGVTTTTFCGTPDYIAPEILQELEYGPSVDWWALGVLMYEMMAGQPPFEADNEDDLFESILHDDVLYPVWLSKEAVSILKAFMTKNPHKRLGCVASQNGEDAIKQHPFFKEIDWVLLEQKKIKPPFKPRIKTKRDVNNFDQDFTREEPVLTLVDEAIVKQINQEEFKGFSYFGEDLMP
# [11] = target: T3, Serine/threonine-protein kinase D3 (Homo sapiens) (UniProt O94806); test: Inhibition of PRKD3 (unknown origin) assessed as residual activity at 100 nM by KINOMEscan analysis relative to control
# T3 sequence (whole entry): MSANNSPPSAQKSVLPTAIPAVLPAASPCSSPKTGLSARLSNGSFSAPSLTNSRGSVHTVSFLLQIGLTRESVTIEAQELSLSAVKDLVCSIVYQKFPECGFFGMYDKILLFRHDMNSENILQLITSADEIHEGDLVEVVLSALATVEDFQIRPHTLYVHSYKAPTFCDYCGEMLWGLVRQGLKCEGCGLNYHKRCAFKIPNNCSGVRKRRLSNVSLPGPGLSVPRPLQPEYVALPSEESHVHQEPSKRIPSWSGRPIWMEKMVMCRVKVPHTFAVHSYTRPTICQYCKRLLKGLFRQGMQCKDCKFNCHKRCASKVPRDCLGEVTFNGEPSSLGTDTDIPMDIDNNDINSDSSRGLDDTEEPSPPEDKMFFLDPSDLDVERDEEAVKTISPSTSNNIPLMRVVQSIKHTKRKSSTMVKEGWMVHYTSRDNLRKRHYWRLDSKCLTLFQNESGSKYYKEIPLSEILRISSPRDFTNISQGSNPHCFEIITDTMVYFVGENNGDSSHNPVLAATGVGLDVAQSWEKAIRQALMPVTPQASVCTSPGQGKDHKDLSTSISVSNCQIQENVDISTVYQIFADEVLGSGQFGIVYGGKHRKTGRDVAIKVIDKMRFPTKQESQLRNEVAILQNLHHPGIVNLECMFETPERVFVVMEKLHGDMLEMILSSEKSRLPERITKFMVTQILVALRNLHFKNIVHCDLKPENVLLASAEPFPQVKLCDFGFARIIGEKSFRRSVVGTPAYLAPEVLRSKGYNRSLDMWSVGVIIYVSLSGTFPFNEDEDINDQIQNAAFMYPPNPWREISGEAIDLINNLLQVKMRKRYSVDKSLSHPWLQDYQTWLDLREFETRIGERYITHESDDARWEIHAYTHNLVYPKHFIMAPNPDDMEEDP
# [12] = tested on: Proto-oncogene tyrosine-protein kinase receptor Ret (Homo sapiens), P07949 [V804M]; test: Inhibition of RET V804M mutant (unknown origin) assessed as residual activity at 100 nM by KINOMEscan analysis relative to control
# Sequence of Proto-oncogene tyrosine-protein kinase receptor Ret (Homo sapiens), P07949 [V804M] (P07949 whole entry V804M): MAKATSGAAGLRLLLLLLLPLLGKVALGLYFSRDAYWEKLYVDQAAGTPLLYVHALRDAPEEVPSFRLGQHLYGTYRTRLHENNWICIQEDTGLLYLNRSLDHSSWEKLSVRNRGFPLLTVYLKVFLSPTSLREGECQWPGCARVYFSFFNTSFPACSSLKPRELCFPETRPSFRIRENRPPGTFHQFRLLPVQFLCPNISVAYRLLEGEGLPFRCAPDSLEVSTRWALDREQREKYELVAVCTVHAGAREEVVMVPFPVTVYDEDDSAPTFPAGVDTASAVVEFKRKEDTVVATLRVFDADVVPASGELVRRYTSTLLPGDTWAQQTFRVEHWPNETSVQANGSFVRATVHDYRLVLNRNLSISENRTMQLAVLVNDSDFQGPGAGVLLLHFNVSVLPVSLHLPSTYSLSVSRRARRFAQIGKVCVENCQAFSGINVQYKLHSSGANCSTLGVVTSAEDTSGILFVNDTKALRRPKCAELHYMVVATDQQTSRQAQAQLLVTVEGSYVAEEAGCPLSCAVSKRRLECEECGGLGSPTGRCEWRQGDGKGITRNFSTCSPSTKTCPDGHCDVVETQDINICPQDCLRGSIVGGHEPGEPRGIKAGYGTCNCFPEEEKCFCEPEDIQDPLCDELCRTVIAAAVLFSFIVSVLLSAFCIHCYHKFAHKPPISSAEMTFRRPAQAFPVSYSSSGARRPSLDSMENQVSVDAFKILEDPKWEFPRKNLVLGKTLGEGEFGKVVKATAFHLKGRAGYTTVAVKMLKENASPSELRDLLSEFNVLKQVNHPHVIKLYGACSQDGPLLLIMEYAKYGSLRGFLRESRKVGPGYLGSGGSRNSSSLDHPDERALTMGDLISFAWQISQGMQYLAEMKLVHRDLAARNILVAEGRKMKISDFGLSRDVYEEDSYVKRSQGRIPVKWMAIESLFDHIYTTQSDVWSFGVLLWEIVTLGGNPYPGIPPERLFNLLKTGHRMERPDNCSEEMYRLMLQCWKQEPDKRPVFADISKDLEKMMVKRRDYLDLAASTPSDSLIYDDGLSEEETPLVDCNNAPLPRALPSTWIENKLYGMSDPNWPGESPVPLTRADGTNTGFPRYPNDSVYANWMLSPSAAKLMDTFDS
# Sequence of Tyrosine-protein kinase ABL1 (Homo sapiens), P00519 [E255K] (P00519 whole entry E255K): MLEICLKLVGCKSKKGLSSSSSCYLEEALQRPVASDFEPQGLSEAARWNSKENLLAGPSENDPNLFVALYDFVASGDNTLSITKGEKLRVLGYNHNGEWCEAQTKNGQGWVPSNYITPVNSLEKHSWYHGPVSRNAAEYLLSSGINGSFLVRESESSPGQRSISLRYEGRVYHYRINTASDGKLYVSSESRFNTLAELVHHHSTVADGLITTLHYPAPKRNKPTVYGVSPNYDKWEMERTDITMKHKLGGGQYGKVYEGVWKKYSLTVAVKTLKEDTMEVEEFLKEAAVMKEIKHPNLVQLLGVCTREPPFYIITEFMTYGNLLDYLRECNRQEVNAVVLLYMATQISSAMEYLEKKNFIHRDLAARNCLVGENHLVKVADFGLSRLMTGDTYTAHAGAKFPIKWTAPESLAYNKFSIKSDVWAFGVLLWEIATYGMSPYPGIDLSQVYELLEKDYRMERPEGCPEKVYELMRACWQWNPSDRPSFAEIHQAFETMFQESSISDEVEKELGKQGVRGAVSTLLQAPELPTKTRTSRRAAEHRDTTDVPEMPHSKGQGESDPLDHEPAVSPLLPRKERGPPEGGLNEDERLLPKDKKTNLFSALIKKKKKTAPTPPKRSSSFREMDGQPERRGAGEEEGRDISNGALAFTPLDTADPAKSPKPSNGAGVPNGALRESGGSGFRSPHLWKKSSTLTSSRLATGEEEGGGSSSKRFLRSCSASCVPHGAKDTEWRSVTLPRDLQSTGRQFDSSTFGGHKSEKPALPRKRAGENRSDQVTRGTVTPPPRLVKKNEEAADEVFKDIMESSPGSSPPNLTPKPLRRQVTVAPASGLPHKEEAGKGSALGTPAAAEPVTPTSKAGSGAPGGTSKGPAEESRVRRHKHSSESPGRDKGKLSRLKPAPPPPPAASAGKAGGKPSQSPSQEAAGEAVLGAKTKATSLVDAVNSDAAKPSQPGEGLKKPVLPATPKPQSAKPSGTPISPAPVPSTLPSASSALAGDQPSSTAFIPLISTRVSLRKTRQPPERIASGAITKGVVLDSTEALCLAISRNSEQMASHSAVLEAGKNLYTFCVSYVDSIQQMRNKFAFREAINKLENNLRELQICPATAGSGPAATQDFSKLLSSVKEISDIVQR
smiles,measurement,setting,value
COc1cc2ncnc(N[C@H](C)c3cccc4ccccc34)c2cc1OC,Activity,[1],99%
same,Activity,[2],52%
same,Activity,[3],81%
same,Activity,[4],92%
same,Activity,[5],84%
same,Activity,[6],98%
same,Activity,[7],49%
same,Activity,[8],87%
same,Activity,[9],80%
same,Activity,[10],96%
same,Activity,[11],100%
same,Activity,[12],100%
